Source: PubChem BioAssay AID2060605 (Molecular Pharmacology Branch, DTP, NCI, 2025)
Several values for one entry are separate records, joined by “and”; a condition that tells them apart may be missing. Equal values may be shown once.

Tested on: 947758-054-R-J2-PDC spheroid growth, percent test/control
Assay: Anticancer human tumor 947758-054-R-J2-PDC patient-derived colon adenocarcinoma cell line growth inhibition [CLK]
Details: spheroids with HUVEC and MSC; for viability, T/C: stronger effect = lower value
In short: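 Patient-derived tumor cells grown as complex spheroids with HUVEC endothelial cells and mesenchymal stem cells, treated with drug combinations. Concentrations descend in half-log steps from near clinical Cmax, or from 10 microM if Cmax unknown.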

[1] = curve of first compound, second compound 0.0316 µM
[2] = curve of first compound, second compound 0.1 µM
[3] = curve of first compound, second compound 0.316 µM
[4] = curve of first compound, second compound 1 µM
[5] = curve of first compound, second compound 3.16 µM
[6] = curve of first compound, second compound 10 µM
[7] = second compound 0.0316 µM, first compound 0.0316 µM
[8] = second compound 0.0316 µM, first compound 0.1 µM
[9] = second compound 0.0316 µM, first compound 0.316 µM
[10] = second compound 0.0316 µM, first compound 1 µM
[11] = second compound 0.1 µM, first compound 0.0316 µM
[12] = second compound 0.1 µM, first compound 0.1 µM
[13] = second compound 0.1 µM, first compound 0.316 µM
[14] = second compound 0.1 µM, first compound 1 µM
[15] = second compound 0.316 µM, first compound 0.0316 µM
[16] = second compound 0.316 µM, first compound 0.1 µM
[17] = second compound 0.316 µM, first compound 0.316 µM
[18] = second compound 0.316 µM, first compound 1 µM
[19] = second compound 1 µM, first compound 0.0316 µM
[20] = second compound 1 µM, first compound 0.1 µM
[21] = second compound 1 µM, first compound 0.316 µM
[22] = second compound 1 µM, first compound 1 µM
[23] = second compound 3.16 µM, first compound 0.0316 µM
[24] = second compound 3.16 µM, first compound 0.1 µM
[25] = second compound 3.16 µM, first compound 0.316 µM
[26] = second compound 3.16 µM, first compound 1 µM
[27] = second compound 10 µM, first compound 0.0316 µM
[28] = second compound 10 µM, first compound 0.1 µM
[29] = second compound 10 µM, first compound 0.316 µM
[30] = second compound 10 µM, first compound 1 µM
[31] = second compound 0.0316 µM, first compound 0.00316 µM
[32] = second compound 0.0316 µM, first compound 0.01 µM
[33] = second compound 0.1 µM, first compound 0.00316 µM
[34] = second compound 0.1 µM, first compound 0.01 µM
[35] = second compound 0.316 µM, first compound 0.00316 µM
[36] = second compound 0.316 µM, first compound 0.01 µM
[37] = second compound 1 µM, first compound 0.00316 µM
[38] = second compound 1 µM, first compound 0.01 µM
[39] = second compound 3.16 µM, first compound 0.00316 µM
[40] = second compound 3.16 µM, first compound 0.01 µM
[41] = second compound 10 µM, first compound 0.00316 µM
[42] = second compound 10 µM, first compound 0.01 µM
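Note: spheroids exposed to compounds for one week before readout.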
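Throughout, for viability, T/C: 100% = DMSO vehicle control wells.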

## COC1C=CCC(C)C(C)S(=O)(=O)NC(=O)c2ccc3c(c2)N(CC2CCC21)CC1(CCCc2cc(Cl)ccc21)CO3 (configuration not stated) + CN1CCN(c2cc(C(=O)Nc3cc4cc(-c5cnn(C)c5)ccc4cn3)ccn2)CC1
[1]
  IC50: 8020 nM
[2]
  IC50: 8680 nM
[3]
  IC50: < 31.6 nM
[4]
  IC50: < 31.6 nM
[5]
  IC50: < 31.6 nM
[6]
  IC50: < 31.6 nM
[7]
  viability, T/C: 111%
[8]
  viability, T/C: 106%
[9]
  viability, T/C: 111%
[10]
  viability, T/C: 97%
Second compound 0.0316 µM, first compound 3.16 µM
  viability, T/C: 101%
Second compound 0.0316 µM, first compound 10 µM
  viability, T/C: 37.8%
[11]
  viability, T/C: 137%
[12]
  viability, T/C: 163%
[13]
  viability, T/C: 179%
[14]
  viability, T/C: 174%
Second compound 0.1 µM, first compound 3.16 µM
  viability, T/C: 151%
Second compound 0.1 µM, first compound 10 µM
  viability, T/C: 35.2%
[15]
  viability, T/C: 4.59%
[16]
  viability, T/C: 2.89%
[17]
  viability, T/C: 2.74%
[18]
  viability, T/C: 3.21%
Second compound 0.316 µM, first compound 3.16 µM
  viability, T/C: 3.47%
Second compound 0.316 µM, first compound 10 µM
  viability, T/C: 6.05%
[19]
  viability, T/C: 1.87%
[20]
  viability, T/C: 4.11%
[21]
  viability, T/C: 0.16%
[22]
  viability, T/C: 1.58%
Second compound 1 µM, first compound 3.16 µM
  viability, T/C: 1.7%
Second compound 1 µM, first compound 10 µM
  viability, T/C: 0.3%
[23]
  viability, T/C: 0.35%
[24]
  viability, T/C: 0.72%
[25]
  viability, T/C: 0.26%
[26]
  viability, T/C: 1.14%
Second compound 3.16 µM, first compound 3.16 µM
  viability, T/C: 0.26%
Second compound 3.16 µM, first compound 10 µM
  viability, T/C: 0.15%
[27]
  viability, T/C: 1.19%
[28]
  viability, T/C: 3.23%
[29]
  viability, T/C: 2.27%
[30]
  viability, T/C: 1.77%
Second compound 10 µM, first compound 3.16 µM
  viability, T/C: 0.61%
Second compound 10 µM, first compound 10 µM
  viability, T/C: 1.23%

## CCc1c2c(nc3ccc(O)cc13)-c1cc3c(c(=O)n1C2)COC(=O)[C@]3(O)CC + CN1CCN(c2cc(C(=O)Nc3cc4cc(-c5cnn(C)c5)ccc4cn3)ccn2)CC1
[1]
  IC50: 7.83 nM
[2]
  IC50: 3.27 nM
[3]
  IC50: < 3.16 nM
[4]
  IC50: < 3.16 nM
[5]
  IC50: < 3.16 nM
[6]
  IC50: < 3.16 nM
[31]
  viability, T/C: 98.9%
[32]
  viability, T/C: 32.5%
[7]
  viability, T/C: 22.7%
[8]
  viability, T/C: 16.4%
[9]
  viability, T/C: 6.6%
[10]
  viability, T/C: 3.27%
[33]
  viability, T/C: 51%
[34]
  viability, T/C: 29.2%
[11]
  viability, T/C: 19.8%
[12]
  viability, T/C: 9.54%
[13]
  viability, T/C: 3.86%
[14]
  viability, T/C: 2.52%
[35]
  viability, T/C: 1.89%
[36]
  viability, T/C: 2.41%
[15]
  viability, T/C: 1.16%
[16]
  viability, T/C: 1.27%
[17]
  viability, T/C: 0.15%
[18]
  viability, T/C: 0.45%
[37]
  viability, T/C: 0.1%
[38]
  viability, T/C: 0.11%
[19]
  viability, T/C: 0.12%
[20]
  viability, T/C: 0.09%
[21]
  viability, T/C: 1.68%
[22]
  viability, T/C: 0.14%
[39]
  viability, T/C: 0.18%
[40]
  viability, T/C: 0.26%
[23]
  viability, T/C: 0.41%
[24]
  viability, T/C: 0.63%
[25]
  viability, T/C: 0.68%
[26]
  viability, T/C: 1.64%
[41]
  viability, T/C: 0.21%
[42]
  viability, T/C: 0.3%
[27]
  viability, T/C: 0.79%
[28]
  viability, T/C: 1.24%
[29]
  viability, T/C: 1.43%
[30]
  viability, T/C: 1.35%

## C=C(F)C(=O)N1CCN(c2nc(OCC3CCCN3C)nc3c2CCN(c2cccc4cccc(Cl)c24)C3)CC1CC#N (configuration not stated)
Compound 0.0316 µM
  viability, T/C: 97% and 92.3%
Compound 0.1 µM
  viability, T/C: 89.9% and 87.2%
Compound 0.316 µM
  viability, T/C: 87% and 84%
Compound 1 µM
  viability, T/C: 95.5% and 86.5%
Compound 3.16 µM
  viability, T/C: 144% and 135%
Compound 10 µM
  viability, T/C: 20% and 21.4%
Curve of compound
  IC50: 6600 nM and 6470 nM

## CCCS(=O)(=O)Nc1ccc(F)c(C(=O)c2c[nH]c3ncc(-c4ccc(Cl)cc4)cc23)c1F
Compound 0.0316 µM
  viability, T/C: 81.8% and 79.5%
Compound 0.1 µM
  viability, T/C: 79.8% and 65%
Compound 0.316 µM
  viability, T/C: 79.4% and 71%
Compound 1 µM
  viability, T/C: 77.4% and 68.7%
Compound 3.16 µM
  viability, T/C: 83.3% and 76.3%
Compound 10 µM
  viability, T/C: 80.2% and 70.7%
Curve of compound
  IC50: > 10000 nM

## Cn1ncnc1[C@H]1c2n[nH]c(=O)c3cc(F)cc(c23)N[C@@H]1c1ccc(F)cc1 + CN1CCN(c2cc(C(=O)Nc3cc4cc(-c5cnn(C)c5)ccc4cn3)ccn2)CC1
[1]
  IC50: > 100 nM
[2]
  IC50: > 100 nM
[3]
  IC50: < 0.316 nM
[4]
  IC50: < 0.316 nM
[5]
  IC50: < 0.316 nM
[6]
  IC50: < 0.316 nM
Second compound 0.0316 µM, first compound 0.000316 µM
  viability, T/C: 141%
Second compound 0.0316 µM, first compound 0.001 µM
  viability, T/C: 155%
[31]
  viability, T/C: 157%
[32]
  viability, T/C: 107%
[7]
  viability, T/C: 133%
[8]
  viability, T/C: 197%
Second compound 0.1 µM, first compound 0.000316 µM
  viability, T/C: 161%
Second compound 0.1 µM, first compound 0.001 µM
  viability, T/C: 171%
[33]
  viability, T/C: 149%
[34]
  viability, T/C: 134%
[11]
  viability, T/C: 181%
[12]
  viability, T/C: 145%
Second compound 0.316 µM, first compound 0.000316 µM
  viability, T/C: 4.7%
Second compound 0.316 µM, first compound 0.001 µM
  viability, T/C: 6.84%
[35]
  viability, T/C: 5.57%
[36]
  viability, T/C: 4.75%
[15]
  viability, T/C: 5.66%
[16]
  viability, T/C: 4.51%
Second compound 1 µM, first compound 0.000316 µM
  viability, T/C: 0.15%
Second compound 1 µM, first compound 0.001 µM
  viability, T/C: 0.15%
[37]
  viability, T/C: 1.79%
[38]
  viability, T/C: 0.11%
[19]
  viability, T/C: 0.18%
[20]
  viability, T/C: 1.95%
Second compound 3.16 µM, first compound 0.000316 µM
  viability, T/C: 0.37%
Second compound 3.16 µM, first compound 0.001 µM
  viability, T/C: 0.17%
[39]
  viability, T/C: 0.17%
[40]
  viability, T/C: 0.13%
[23]
  viability, T/C: 0.37%
[24]
  viability, T/C: 1.28%
Second compound 10 µM, first compound 0.000316 µM
  viability, T/C: 0.25%
Second compound 10 µM, first compound 0.001 µM
  viability, T/C: 2.6%
[41]
  viability, T/C: 0.52%
[42]
  viability, T/C: 0.26%
[27]
  viability, T/C: 0.26%
[28]
  viability, T/C: 2.18%

## CC(CO)NC(=O)c1cc(-c2ccc(Cl)cc2)nn(-c2cnn(C)c2)c1=O (configuration not stated)
Compound 0.0316 µM
  viability, T/C: 92.8% and 77.6%
Compound 0.1 µM
  viability, T/C: 84.2% and 87.1%
Compound 0.316 µM
  viability, T/C: 94.1% and 107%
Compound 1 µM
  viability, T/C: 97.6% and 75.3%
Compound 3.16 µM
  viability, T/C: 108% and 92.3%
Compound 10 µM
  viability, T/C: 112% and 114%
Curve of compound
  IC50: > 10000 nM
